Source: ChEMBL document CHEMBL1132555, “Tyrosine kinase inhibitors. 16. 6,5,6-tricyclic benzothieno[3, 2-d]pyrimidines and pyrimido[5,4-b-] and -[4,5-b]ĭndoles as potent inhibitors of the epidermal growth factor receptor tyrosine kinase” (J Med Chem, 1999)
One block for each compound: values may come before it.

Legend:
[1] = biological target: T1, Epidermal growth factor receptor (Homo sapiens, UniProt P00533)
Description: Concentration needed to inhibit the phosphorylation of a 14-residue fragment of phospholipase C-gamma1 by Epidermal growth factor receptor (prepared from human A431 carcinoma cell vesicles by immunoaffinity chromatography)

[2] = biological target: T1, Epidermal growth factor receptor; assay: Inhibition of Epidermal growth factor receptor autophosphorylation in A431 cells
[3] = biological target: Fibroblast growth factor receptor (Homo sapiens) (UniProt P22607+P11362+P22455+P21802); assay: Inhibition of Fibroblast growth factor receptor at 50 uM; format: protein assay
[4] = biological target: Proto-oncogene tyrosine-protein kinase Src (Homo sapiens) (UniProt P12931); assay: Inhibition of c-Src tyrosine kinase at 50 uM
[5] = biological target: Insulin receptor (Homo sapiens) (UniProt P06213); assay: Inhibition against Insulin receptor kinase at 50 uM
[6] = biological target: Protein kinase C (PKC) (Homo sapiens) (UniProt O94806+P41743+P17252+P05129+Q05655+P05771+Q05513+Q02156+P24723+Q15139+Q04759); assay: Inhibition of Protein kinase C at 50 uM; format: protein assay
[7] = Inhibition of Platelet-derived growth factor receptor at 50 uM
[8] = biological target: Proto-oncogene tyrosine-protein kinase Src (Homo sapiens) (UniProt P12931); assay: Inhibition against c-Src tyrosine kinase at 1.25 uM

Sequence of Insulin receptor (Homo sapiens) (P06213 28-758 limits assumed): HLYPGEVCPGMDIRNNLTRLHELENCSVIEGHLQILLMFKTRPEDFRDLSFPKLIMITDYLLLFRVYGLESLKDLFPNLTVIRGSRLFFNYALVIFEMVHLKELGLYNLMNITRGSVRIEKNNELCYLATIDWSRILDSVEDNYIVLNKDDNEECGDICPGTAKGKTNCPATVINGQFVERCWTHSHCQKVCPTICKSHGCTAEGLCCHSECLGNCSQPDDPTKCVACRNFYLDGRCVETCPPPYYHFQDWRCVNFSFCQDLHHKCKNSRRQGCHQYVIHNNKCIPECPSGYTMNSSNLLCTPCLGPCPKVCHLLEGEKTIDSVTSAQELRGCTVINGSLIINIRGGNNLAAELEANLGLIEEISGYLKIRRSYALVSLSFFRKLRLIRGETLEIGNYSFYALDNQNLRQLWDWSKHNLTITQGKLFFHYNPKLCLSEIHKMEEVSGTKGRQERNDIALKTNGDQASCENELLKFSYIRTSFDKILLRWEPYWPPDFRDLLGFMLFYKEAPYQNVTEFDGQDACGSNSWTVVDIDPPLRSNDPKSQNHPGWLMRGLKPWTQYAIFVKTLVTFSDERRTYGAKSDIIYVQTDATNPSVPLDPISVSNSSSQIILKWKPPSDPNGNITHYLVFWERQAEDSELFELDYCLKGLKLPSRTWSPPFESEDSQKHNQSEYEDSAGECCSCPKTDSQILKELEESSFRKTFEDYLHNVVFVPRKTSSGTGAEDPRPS
Sequence of Insulin receptor (Homo sapiens) (P06213 763-1382 limits assumed): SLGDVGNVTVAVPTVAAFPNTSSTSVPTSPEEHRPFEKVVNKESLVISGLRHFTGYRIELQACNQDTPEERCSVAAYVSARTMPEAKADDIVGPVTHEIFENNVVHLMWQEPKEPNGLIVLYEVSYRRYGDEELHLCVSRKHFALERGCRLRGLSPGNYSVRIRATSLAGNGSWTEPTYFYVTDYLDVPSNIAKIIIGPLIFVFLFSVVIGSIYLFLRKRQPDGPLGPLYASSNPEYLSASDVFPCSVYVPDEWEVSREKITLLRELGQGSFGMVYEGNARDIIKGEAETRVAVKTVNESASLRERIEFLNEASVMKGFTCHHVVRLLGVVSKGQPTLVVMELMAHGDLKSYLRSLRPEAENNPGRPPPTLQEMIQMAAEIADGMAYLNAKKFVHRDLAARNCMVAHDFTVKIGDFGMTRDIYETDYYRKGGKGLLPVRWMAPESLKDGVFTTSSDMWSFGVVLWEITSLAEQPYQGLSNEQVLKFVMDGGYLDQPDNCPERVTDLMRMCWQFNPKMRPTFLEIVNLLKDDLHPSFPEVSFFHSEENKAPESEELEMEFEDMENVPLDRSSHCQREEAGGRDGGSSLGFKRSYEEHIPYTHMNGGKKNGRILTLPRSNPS
Sequence of Proto-oncogene tyrosine-protein kinase Src (Homo sapiens) (P12931 2-536 limits assumed): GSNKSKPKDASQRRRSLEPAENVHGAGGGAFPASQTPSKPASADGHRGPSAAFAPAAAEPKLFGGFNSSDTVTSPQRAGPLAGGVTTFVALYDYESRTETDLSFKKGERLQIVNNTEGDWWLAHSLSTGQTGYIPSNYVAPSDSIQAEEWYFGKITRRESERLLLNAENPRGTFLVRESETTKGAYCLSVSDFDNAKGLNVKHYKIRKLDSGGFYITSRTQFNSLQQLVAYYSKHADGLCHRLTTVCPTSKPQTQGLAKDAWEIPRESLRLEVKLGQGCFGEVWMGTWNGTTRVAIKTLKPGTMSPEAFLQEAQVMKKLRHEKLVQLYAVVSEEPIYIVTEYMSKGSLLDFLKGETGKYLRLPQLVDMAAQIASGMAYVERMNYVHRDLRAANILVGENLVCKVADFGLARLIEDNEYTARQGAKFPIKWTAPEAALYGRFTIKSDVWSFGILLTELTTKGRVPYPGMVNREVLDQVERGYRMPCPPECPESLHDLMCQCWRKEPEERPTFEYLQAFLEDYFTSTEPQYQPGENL
T1 sequence (P00533 whole entry): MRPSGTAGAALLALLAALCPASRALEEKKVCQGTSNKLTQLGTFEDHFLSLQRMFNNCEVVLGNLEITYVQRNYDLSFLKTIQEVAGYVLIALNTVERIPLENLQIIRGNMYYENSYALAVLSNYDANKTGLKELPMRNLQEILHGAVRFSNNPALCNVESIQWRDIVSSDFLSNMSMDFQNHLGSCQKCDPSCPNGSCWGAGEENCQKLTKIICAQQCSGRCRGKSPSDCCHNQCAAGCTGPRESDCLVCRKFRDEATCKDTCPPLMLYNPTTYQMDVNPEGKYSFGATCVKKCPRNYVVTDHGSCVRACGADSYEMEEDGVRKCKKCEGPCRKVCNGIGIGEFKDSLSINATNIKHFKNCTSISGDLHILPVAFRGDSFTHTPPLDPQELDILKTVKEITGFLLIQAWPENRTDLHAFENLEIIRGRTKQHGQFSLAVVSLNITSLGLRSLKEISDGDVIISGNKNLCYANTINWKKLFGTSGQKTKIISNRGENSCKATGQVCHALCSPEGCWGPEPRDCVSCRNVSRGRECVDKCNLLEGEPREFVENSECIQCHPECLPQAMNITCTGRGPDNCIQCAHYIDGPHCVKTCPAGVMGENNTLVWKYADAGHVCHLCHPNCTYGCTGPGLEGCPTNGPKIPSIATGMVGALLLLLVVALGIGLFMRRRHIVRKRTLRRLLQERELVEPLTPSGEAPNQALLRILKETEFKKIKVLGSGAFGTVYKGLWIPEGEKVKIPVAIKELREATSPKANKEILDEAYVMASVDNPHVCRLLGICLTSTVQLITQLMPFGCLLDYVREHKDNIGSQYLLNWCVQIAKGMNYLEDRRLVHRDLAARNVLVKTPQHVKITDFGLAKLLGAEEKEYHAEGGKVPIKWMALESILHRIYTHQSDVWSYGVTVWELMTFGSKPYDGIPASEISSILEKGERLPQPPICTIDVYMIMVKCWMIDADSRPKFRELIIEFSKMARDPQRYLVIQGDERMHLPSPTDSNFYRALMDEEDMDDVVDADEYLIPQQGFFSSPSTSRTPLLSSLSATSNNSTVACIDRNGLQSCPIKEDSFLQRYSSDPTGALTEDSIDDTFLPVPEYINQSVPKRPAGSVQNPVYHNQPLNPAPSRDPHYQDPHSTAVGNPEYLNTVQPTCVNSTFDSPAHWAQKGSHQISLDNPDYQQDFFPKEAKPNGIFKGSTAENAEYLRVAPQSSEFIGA

SMILES: Clc1cccc(Nc2ncnc3c2sc2ncccc23)c1
IC50 [1]: > 1000 nM

SMILES: Cc1nc(Nc2cccc(Br)c2)c2c(n1)[nH]c1ccccc12
IC50 [1]: > 10000 nM

SMILES: C[C@H](Nc1ncnc2c1sc1ccccc12)c1ccccc1
inhibition [3]: 20% | IC50 [1]: 538 nM | inhibition [4]: 0% | inhibition [5]: 13% | inhibition [6]: 7% | inhibition [7]: 0%

SMILES: c1ccc(CNc2ncnc3c2sc2ccccc23)cc1
inhibition [3]: 11% | inhibition [4]: 0% | inhibition [5]: 0% | inhibition [7]: 10%

SMILES: O=[N+]([O-])c1cccc2c1sc1c(Nc3cccc(Br)c3)ncnc12
IC50 [1]: 158 nM

SMILES: Brc1cccc(Nc2ncnc3c2sc2ccccc23)c1
inhibition [3]: 21% | inhibition [4]: 0% | inhibition [5]: 0% | inhibition [6]: 18% | inhibition [7]: 0%

SMILES: Brc1cccc(Nc2ncnc3sccc23)c1
IC50 [1]: 35 nM

SMILES: Brc1cccc(Nc2ncnc3cc4[nH]ccc4cc23)c1
IC50 [1]: 0.39 nM

SMILES: Nc1ccc2sc3c(Nc4cccc(Br)c4)ncnc3c2c1
inhibition [5]: 0% | inhibition [6]: 0%

SMILES: COc1ccc2c(c1)sc1c(Nc3cccc(Br)c3)ncnc12
inhibition [3]: 19% | inhibition [4]: 22% | inhibition [5]: 0% | inhibition [6]: 20% | inhibition [7]: 21%

SMILES: O=[N+]([O-])c1ccc2sc3c(Nc4cccc(C(F)(F)F)c4)ncnc3c2c1
IC50 [1]: 460 nM

SMILES: CN(C)CCNc1[nH]cnc2c3ccccc3nc1-2
IC50 [1]: > 100000 nM

SMILES: c1ccc2c(c1)[nH]c1c(NC3CCCCC3)ncnc12
IC50 [1]: > 100000 nM

SMILES: C[C@@H](Nc1[nH]cnc2c3ccccc3nc1-2)c1ccccc1
IC50 [1]: > 100000 nM

SMILES: CN(C)CCNc1[nH]cnc2nc3ccccc3c1-2
IC50 [1]: > 10000 nM

SMILES: COc1cc2sc3c(Nc4cccc(Br)c4)ncnc3c2cc1OC
IC50 [1]: 444 nM

SMILES: Cn1c2ccccc2c2c(Nc3cccc(Br)c3)ncnc21
IC50 [1]: 742 nM | IC50 [2]: 769 nM

The next lines start with the values.

IC50 [1]: 1.1 nM | IC50 [2]: 33 nM
SMILES: CNc1ccc2sc3c(Nc4cccc(Br)c4)ncnc3c2c1

IC50 [1]: 2.7 nM
SMILES: Nc1cccc2c1sc1c(Nc3cccc(Br)c3)ncnc12

IC50 [1]: 0.47 nM
SMILES: Nc1ccc2c(c1)sc1c(Nc3cccc(Br)c3)ncnc12

IC50 [1]: 1 nM
SMILES: Cc1cccc(Nc2cc(NCCO)ncn2)c1

IC50 [1]: 1 nM | IC50 [2]: 42 nM
SMILES: Nc1cc2sc3c(Nc4cccc(Br)c4)ncnc3c2cc1F

IC50 [1]: 11 nM
SMILES: Cc1cccc(Nc2ncnc3c2sc2ccc([N+](=O)[O-])cc23)c1

inhibition [3]: 24% | IC50 [1]: 2.1 nM | inhibition [4]: 47% | inhibition [5]: 14% | inhibition [6]: 44% | inhibition [7]: 17% | IC50 [2]: 98 nM
SMILES: Cc1cccc(Nc2ncnc3c2sc2ccc(N)cc23)c1

IC50 [1]: 20 nM
SMILES: COc1cccc2sc3c(Nc4cccc(Br)c4)ncnc3c12

inhibition [3]: 30% | IC50 [1]: 1.2 nM | inhibition [5]: 0% | inhibition [7]: 2% | inhibition [8]: 8% | IC50 [2]: 13 nM
SMILES: COc1ccc2[nH]c3ncnc(Nc4cccc(Br)c4)c3c2c1

IC50 [1]: 12.6 nM
SMILES: COc1cccc2c1sc1c(Nc3cccc(Br)c3)ncnc12

inhibition [3]: 17% | IC50 [1]: 47 nM | inhibition [4]: 13% | inhibition [5]: 0% | inhibition [6]: 51% | inhibition [7]: 12%
SMILES: Nc1ccc2sc3c(Nc4cccc(C(F)(F)F)c4)ncnc3c2c1

IC50 [1]: 48 nM
SMILES: O=[N+]([O-])c1ccc2c(c1)sc1c(Nc3cccc(Br)c3)ncnc12

IC50 [1]: 19.8 nM
SMILES: CN(C)c1ccc2sc3c(Nc4cccc(Br)c4)ncnc3c2c1

IC50 [1]: 147 nM | IC50 [2]: 493 nM
SMILES: Nc1nc(Nc2cccc(Br)c2)c2c(n1)[nH]c1ccccc12

IC50 [1]: 7.9 nM | IC50 [2]: 85 nM
SMILES: CCNc1cc2sc3c(Nc4cccc(Br)c4)ncnc3c2cc1F

IC50 [1]: 58 nM
SMILES: O=[N+]([O-])c1ccc2sc3c(Nc4ccccc4)ncnc3c2c1
